Structures can show the parent of a compound that is named as a salt.
These molecules were tested against α1 adrenoceptor (assay: displacement of ^3 H-prazosin specifically bound in rat brain homogenate (radioligand binding)). Conditions: ^3 H Prazosin binding, Ki calculated from IC50, read-out: K1 (nM) ^3 H Prazosin.
Procedure: The compounds of the invention were tested […] for their ability to compete with labelled ligands of α1, α2 -adrenergic,and dopaminergic receptors. Said tests were made essentially following:
(b) the method described by P. Greengrass et al., European Journal of Pharmacology, Vol. 55, pp. 323-326, (1979), which uses the specific displacement of ^3 H-prazosin specifically bound in rat brain homogenate, for the identification of substances interacting with the so called "α1 "adrenoceptor;
The above mentioned methods are radioligand binding assays and are based on the knowledge that many natural or synthetic physiologically active substances such as neurotransmitters, hormones, and others, specifically link to cellular receptors, generally of proteic nature. They are generally obtained from a tissue or organ of a suitable test-animal after isolation and homogenization of said tissue or organ.
The homogenate is twice centrifugated to separate and partially purify the receptorial fraction (synaptosomes).
The labelled substances employed are known to specifically bind their receptors, so the drug-receptor dissociation constants obtained for each test compound under standard conditions are a measure of their actual binding affinities. The validation of the above methods in predicting a possible pharmacological activity was carried out comparing the in vitro binding constants of a number of […] agonist or antagonist of the adrenergic or dopaminergic system with their in vivo activities. The α1 -adrenergic activity is essentially correlated with a peripheral vasodilatation. The α2 -adrenergic activity is essentially correlated with a hypotensive action of central origin, and the dopaminergic activity is correlated with a neuroleptic action. IC50 values, defined as the drug concentration that cause 50% inhibition of the specific ^3 H ligant binding, are observed by incubating from 5 to 7 different dilutions of the tested compound in duplicate or triplicate. Ki, inhibition constant, values are calculated from the following formula: [formula] wherein IC50 is defined as above, C is the concentration of the ^3 H ligand, and KD is the dissociation constant of the ^3 H ligand-receptor complex.

`CC(c1ccccc1)n1nc(-c2ccc(F)cc2)c2c1CCN(C)C2` (centres unmarked) [Example 144, 3-(4-fluorophenyl)-4,5,6,7-tetrahydro-5-methyl-1-(1-phenylethyl)-1H-pyrazolo/4,3-c/pyridine, hydrochloride] and `CC(c1ccccc1)n1nc(-c2ccc(F)cc2)c2c1CCNC2` (centres unmarked) [Example 116, 3-(4-fluorophenyl)-4,5,6,7-tetrahydro-1-(1-phenylethyl)-1H-pyrazolo/4,3-c/pyridine, methanesulfonate] are within 1.5-fold of each other in Ki: 8.14 nM for the first, 7.24 nM for the second.

Compared with `Fc1ccc(-c2nn(Cc3ccccc3Cl)c3c2CNCC3)cc1` [Example 114, 1-(2-chlorophenylmethyl)-3-(4-fluorophenyl)-4,5,6,7-tetrahydro-1H-pyrazolo/4,3-c/pyridine, methanesulfonate], `CN1CCc2c(c(-c3ccc(F)cc3)nn2Cc2ccccc2Cl)C1` [Example 142, 1-(2-chlorophenylmethyl)-3-(4-fluorophenyl)-5-methyl-4,5,6,7-tetrahydro-1H-pyrazolo/4,3-c/pyridine, methanesulfonate] is 2.1-fold higher in Ki: 17.3 nM for the first, 36.3 nM for the second. The first binds more tightly here.

Going from `CN1CCc2c(c(-c3ccc(F)cc3)nn2CCc2ccccc2)C1` [Example 138, 3-(4-fluorophenyl)-1-(2-phenylethyl)-5-methyl-4,5,6,7-tetrahydro-1H-pyrazolo/4,3-c/pyridine] to `CN1CCc2c(c(-c3ccc(F)cc3)nn2CCCc2ccccc2)C1` [Example 139, 3-(4-fluorophenyl)-1-(3-phenylpropyl)-5-methyl-4,5,6,7-tetrahydro-1H-pyrazolo/4,3-c/pyridine, hydrochloride], the Ki falls from 40.3 nM to 20.6 nM (2-fold). The second binds more tightly here.

`Cc1ccc(-c2n[nH]c3c2CNCC3)cc1` [Example 32, 3-(4-methylphenyl)-4,5,6,7-tetrahydro-1H-pyrazolo/4,3-c/pyridine, dihydrochloride] and `Fc1ccc(-c2n[nH]c3c2CNCC3)cc1` [Example 19, 3-(4-fluorophenyl)-4,5,6,7-tetrahydro-1H-pyrazolo/4,3-c/pyridine] are within 1.5-fold of each other in Ki: 92.2 nM for the first, 69.2 nM for the second.

`CC(C)n1nc(-c2ccc(F)cc2)c2c1CCNC2` [Example 95, 3-(4-fluorophenyl)-1-(2-methylethyl)-4,5,6,7-tetrahydro-1H-pyrazolo/4,3-c/pyridine, methanesulfonate] and `CCCn1nc(-c2ccc(F)cc2)c2c1CCNC2` [Example 112, 3-(4-fluorophenyl)-1-n.propyl-4,5,6,7-tetrahydro-1H-pyrazolo/4,3-c/pyridine, methanesulfonate] are within 1.5-fold of each other in Ki: 32.2 nM for the first, 24.2 nM for the second.

`CCCCCn1nc(-c2ccc(F)cc2)c2c1CCNC2` [Example 122, 3-(4-fluorophenyl)-4,5,6,7-tetrahydro-1-n.pentyl-1H-pyrazolo/4,3-c/pyridine, methanesulfonate] and `CCCCCCn1nc(-c2ccc(F)cc2)c2c1CCNC2` [Example 123, 3-(4-fluorophenyl)-4,5,6,7-tetrahydro-1-n.hexyl-1H-pyrazolo/4,3-c/pyridine, methanesulfonate] are within 1.5-fold of each other in Ki: 8.7 nM for the first, 13 nM for the second.

Compared with `Cc1ccc(-c2nn(Cc3ccccc3)c3c2CNCC3)cc1` [Example 119, 4,5,6,7-tetrahydro-3-(4-methylphenyl)-1-phenylmethyl-1H-pyrazolo/4,3-c/pyridine, hydrochloride], `Clc1ccc(-c2nn(Cc3ccccc3)c3c2CNCC3)cc1` [Example 118, 3-(4-chlorophenyl)-4,5,6,7-tetrahydro-1-phenylmethyl)-1H-pyrazolo/4,3-c/pyridine, hydrochloride] is 2.5-fold higher in Ki: 5.86 nM for the first, 14.5 nM for the second.

`Cn1nc(-c2ccccc2)c2c1CCNC2` [Example 96, 1-methyl-3-phenyl-4,5,6,7-tetrahydro-1H-pyrazolo/4,3-c/pyridine, methanesu lfonate] and `c1ccc(Cn2nc(-c3ccccc3)c3c2CCNC3)cc1` [Example 117, 4,5,6,7-tetrahydro-3-phenyl-1-phenylmethyl-1H-pyrazolo/4,3-c/pyridine, hydrochloride] are within 1.5-fold of each other in Ki: 52 nM for the first, 38.6 nM for the second.

Going from `CC(C)N1CCc2c(c(-c3ccc(F)cc3)nn2Cc2ccccc2)C1` [Example 162, 3-(4-fluorophenyl)-5-(2-methylethyl)-1-phenylmethyl-4,5,6,7-tetrahydro-1H-pyrazolo/4,3-c/pyridine] to `CN1CCc2c(c(-c3ccc(F)cc3)nn2Cc2ccccc2)C1` [Example 128, 3-(4-fluorophenyl)-5-methyl-1-phenylmethyl-4,5,6,7-tetrahydro-1H-pyrazolo/4,3-c/pyridine, methanesulfonate], the Ki falls from 97.6 nM to 21.2 nM (4.6-fold).

Compared with `CN1CCc2c(c(-c3ccccc3)nn2Cc2ccccc2)C1` [Example 145, 4,5,6,7-tetrahydro-5-methyl-3-phenyl-1-phenylmethyl-1H-pyrazolo/4,3-c/pyridine, methanesulfonate], `Cc1ccc(-c2nn(Cc3ccccc3)c3c2CN(C)CC3)cc1` [Example 147, 4,5,6,7-tetrahydro-5-methyl-3-(4-methylphenyl)-1-phenylmethyl-1H-pyrazolo/4,3-c/pyridine, methanesulfonate] is 2.5-fold lower in Ki: 49.4 nM for the first, 20.1 nM for the second.

`CCCCCn1nc(-c2ccc(F)cc2)c2c1CCN(C)C2` [Example 150, 3-(4-fluorophenyl))-4,5,6,7-tetrahydro-5-methyl-1-n.pentyl-1H-pyrazolo/4,3-c/pyridine, methanesulfonate] and `CCCCCCn1nc(-c2ccc(F)cc2)c2c1CCN(C)C2` [Example 151, 3-(4-fluorophenyl)-4,5,6,7-tetrahydro-1-n.hexyl-5-methyl-1H-pyrazolo/4,3-c/pyridine, methanesulfonate] are within 1.5-fold of each other in Ki: 18.3 nM for the first, 15.2 nM for the second.

`Fc1ccc(-c2nn(Cc3ccccc3)c3c2CN(C2CCCC2)CC3)cc1` [Example 163, 5-cyclopentyl-3-(4-fluorophenyl)-1-phenylmethyl-4,5,6,7-tetrahydro-1H-pyrazolo/4,3-c/pyridine, hydrochloride] and `CN1CCc2c(c(-c3ccc(Cl)cc3)nn2Cc2ccccc2)C1` [Example 146, 3-(4-chlorophenyl)-4,5,6,7-tetrahydro-5-methyl-1-phenylmethyl-1H-pyrazolo/4,3-c/pyridine, methanesulfonate] are within 1.5-fold of each other in Ki: 42.4 nM for the first, 30.9 nM for the second.

Compared with `Fc1ccc(-c2nn(CCCc3ccccc3)c3c2CNCC3)cc1` [Example 111, 3-(4-fluorophenyl)-1-(3-phenylpropyl)-4,5,6,7-tetrahydro-1H-pyrazolo/4,3-c/pyridine, methanesulfonate], `Fc1ccc(-c2nn(CCc3ccccc3)c3c2CNCC3)cc1` [Example 110, 3-(4-fluorophenyl)-1-(2-phenylethyl)-4,5,6,7-tetrahydro-1H-pyrazolo/4,3-c/pyridine, methanesulfonate] is 3.1-fold higher in Ki: 12.9 nM for the first, 40.3 nM for the second. The first binds more tightly here.

`Fc1ccc(-c2nn(Cc3ccc(Cl)c(Cl)c3)c3c2CNCC3)cc1` [Example 108, 1-(3,4-dichlorophenylmethyl)-3-(4-fluorophenyl)-4,5,6,7-tetrahydro-1H-pyrazolo/4,3-c/pyridine, hydrochloride] and `Fc1ccc(-c2nn(Cc3ccc(Cl)cc3)c3c2CNCC3)cc1` [Example 103, 1-(4-chlorophenylmethyl)-3-(4-fluorophenyl)-4,5,6,7-tetrahydro-1H-pyrazolo/4,3-c/pyridine, hydrochloride] are within 1.5-fold of each other in Ki: 7.48 nM for the first, 11.1 nM for the second.

Compared with `COc1ccc(Cn2nc(-c3ccc(F)cc3)c3c2CCNC3)cc1` [Example 105, 3-(4-fluorophenyl)-1-(4-methoxyphenylmethyl)-4,5,6,7-tetrahydro-1H-pyrazolo/4,3-c/pyridine, hydrochloride], `COc1ccc(Cn2nc(-c3ccc(F)cc3)c3c2CCN(C)C3)cc1` [Example 133, 3-(4-fluorophenyl)-1-(4-methoxyphenylmethyl)-5-methyl-4,5,6,7-tetrahydro-1H-pyrazolo/4,3-c/pyridine, hydrochloride] is 2-fold higher in Ki: 6.23 nM for the first, 12.4 nM for the second. The first binds more tightly here.

`CN1CCc2c(c(-c3ccc(F)cc3)nn2Cc2ccc(Cl)cc2)C1` [Example 132, 1-(4-chlorophenylmethyl)-3-(4-fluorophenyl)-5-methyl-4,5,6,7-tetrahydro-1H-pyrazolo/4,3-c/pyridine, methanesulfonate] and `CN1CCc2c(c(-c3ccc(F)cc3)nn2Cc2ccc(Cl)c(Cl)c2)C1` [Example 136, 1-(3,4-dichlorophenylmethyl)-3-(4-fluorophenyl)-5-methyl-4,5,6,7-tetrahydro-1H-pyrazolo/4,3-c/pyridine] are within 1.5-fold of each other in Ki: 20.8 nM for the first, 21.9 nM for the second.

Going from `CCCCn1nc(-c2ccc(F)cc2)c2c1CCNC2` [Example 113, 3-(4-fluorophenyl)-1-n.butyl-4,5,6,7-tetrahydro-1H-pyrazolo/4,3-c/pyridine, methanesulfonate] to `CCCCn1nc(-c2ccc(F)cc2)c2c1CCN(C)C2` [Example 141, 3-(4-fluorophenyl)-1-n.butyl-5-methyl-4,5,6,7-tetrahydro-1H-pyrazolo/4,3-c/pyridine, methanesulfonate], the Ki rises from 17.3 nM to 32.8 nM (1.9-fold). The first binds more tightly here.

`CCCn1nc(-c2ccc(F)cc2)c2c1CCN(C)C2` [Example 140, 3-(4-fluorophenyl)-1-n.propyl-5-methyl-4,5,6,7-tetrahydro-1H-pyrazolo/4,3-c/pyridine, methanesulfonate] was tested, and the Ki was 73.5 nM.

— patent US4500525A, “Pharmacologically active pyrazolo/4,3-c/pyridines” (Gruppo Lepetit S.p.A., priority 1982, dated 1985)
